Consider 21 compounds from PubChem BioAssay AID248 (DTP/NCI, 2004).

SMILES strings stand for the structures. Where “and” joins values, the source holds several entries; their conditions need not be identical. Identical values can stand only once. Toxic doses and inconclusive results are not listed.

The test system of the assay is L1210 leukemia ip in BDF1 mice, survival T/C. As to the kind of experiment: NCI In Vivo Anticancer Drug Screen. Data for tumor model L1210 Leukemia (intraperitoneal) in B6D2F1 (BDF1) mice. Particulars: endpoint: mean survival time, higher = longer survival. In outline: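 Ratio derived from survival: compound-dosed mice over vehicle-dosed mice, all bearing a transplantable tumor.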

The mark [1] stands for this setting: dose: 100.0 mg/kg/injection, schedule: Q01DX001 (ip), vehicle: Klucel (hydroxypropylcellulose) (HPC).
Where [2] appears, read: dose: 100.0 mg/kg/injection, schedule: Q01DX009 (ip), vehicle: Klucel (hydroxypropylcellulose) (HPC).
[3] abbreviates: dose: 100.0 mg/kg/injection, schedule: Q04DX003 (ip), vehicle: Klucel (hydroxypropylcellulose) (HPC).
[4] abbreviates: dose: 200.0 mg/kg/injection, schedule: Q01DX009 (ip), vehicle: Klucel (hydroxypropylcellulose) (HPC).
The mark [5] stands for this setting: dose: 400.0 mg/kg/injection, schedule: Q01DX009 (ip), vehicle: Klucel (hydroxypropylcellulose) (HPC).
Where [6] appears, read: dose: 50.0 mg/kg/injection, schedule: Q01DX009 (ip), vehicle: Klucel (hydroxypropylcellulose) (HPC).
Where [7] appears, read: dose: 12.5 mg/kg/injection, schedule: Q04DX003 (ip), vehicle: Klucel (hydroxypropylcellulose) (HPC).
Setting [8] is: dose: 25.0 mg/kg/injection, schedule: Q04DX003 (ip), vehicle: Klucel (hydroxypropylcellulose) (HPC).
Setting [9] is: dose: 100.0 mg/kg/injection, schedule: Q01DX001 (ip), vehicle: saline.
Setting [10] is: dose: 200.0 mg/kg/injection, schedule: Q01DX001 (ip), vehicle: saline.
Setting [11] is: dose: 400.0 mg/kg/injection, schedule: Q01DX001 (ip), vehicle: saline.
Where [12] appears, read: dose: 100.0 mg/kg/injection, schedule: Q04DX003 (ip), vehicle: saline with Tween-80.
[13] abbreviates: dose: 200.0 mg/kg/injection, schedule: Q04DX003 (ip), vehicle: saline with Tween-80.

For the compound `COc1cc(N(CCCl)CCCl)c(OC)cc1/C=N\Nc1nnc(C)n1N`, the T/C was 115 % of control (dose: 2.5 mg/kg/injection, schedule: Q01DX015 (ip), vehicle: carboxymethylcellulose (CMC)); 121 % of control (dose: 5.0 mg/kg/injection, schedule: Q01DX015 (ip), vehicle: carboxymethylcellulose (CMC)); 155 % of control (dose: 10.0 mg/kg/injection, schedule: Q01DX015 (ip), vehicle: carboxymethylcellulose (CMC)); 103 % of control (dose: 30.0 mg/kg/injection, schedule: Q01DX015 (ip), vehicle: carboxymethylcellulose (CMC)); 103 % of control (dose: 44.0 mg/kg/injection, schedule: Q01DX001 (ip), vehicle: carboxymethylcellulose (CMC)); 120 % of control (dose: 50.0 mg/kg/injection, schedule: Q01DX001 (ip), vehicle: carboxymethylcellulose (CMC)). The T/C is 115 % of control (dose: 67.0 mg/kg/injection, schedule: Q01DX001 (ip), vehicle: carboxymethylcellulose (CMC)); 161 % of control (dose: 100.0 mg/kg/injection, schedule: Q01DX001 (ip), vehicle: carboxymethylcellulose (CMC)); 97 % of control (dose: 400.0 mg/kg/injection, schedule: Q01DX001 (ip), vehicle: carboxymethylcellulose (CMC)).

For the compound `c1ccc2c(c1)C(=C1c3ccccc3-c3ccccc31)c1ccccc1-2`, the T/C reads like this: under setting [1], 104 % of control; (dose: 200.0 mg/kg/injection, schedule: Q01DX001 (ip), vehicle: Klucel (hydroxypropylcellulose) (HPC)) 96 % of control.

Consider `COC(=O)c1ccccc1C(=O)c1ccccc1`, for which the T/C is 101 % of control (dose: 100.0 mg/kg/injection, schedule: Q04DX003 (ip), vehicle: carboxymethylcellulose (CMC)); 102 % of control (dose: 200.0 mg/kg/injection, schedule: Q04DX003 (ip), vehicle: carboxymethylcellulose (CMC)); 96 % of control (dose: 400.0 mg/kg/injection, schedule: Q04DX003 (ip), vehicle: carboxymethylcellulose (CMC)).

Consider `C=C1C(=O)OCC2(C)CCCCC12` (stereo not drawn), for which the T/C by setting is: (dose: 10.0 mg/kg/injection, schedule: Q04DX003 (ip), vehicle: saline) 101 % of control; (dose: 20.0 mg/kg/injection, schedule: Q04DX003 (ip), vehicle: saline) 116 % of control.

For the compound `CCOC(=O)c1cn[nH]c1/N=N/N(C)C`, the T/C reads like this: (dose: 42.0 mg/kg/injection, schedule: Q01DX009 (ip), vehicle: carboxymethylcellulose (CMC)) 113 % of control; (dose: 178.0 mg/kg/injection, schedule: Q01DX001 (ip), vehicle: carboxymethylcellulose (CMC)) 110 % of control; (dose: 267.0 mg/kg/injection, schedule: Q01DX001 (ip), vehicle: carboxymethylcellulose (CMC)) 112 % of control.

`O=C(N=Nc1c(NNC(=O)c2ccc([N+](=O)[O-])cc2)c(O)c2ccccc2c1O)c1ccc([N+](=O)[O-])cc1`: the T/C (dose: 75.0 mg/kg/injection, schedule: Q04DX003 (ip), vehicle: saline) is 102 % of control; the T/C (dose: 150.0 mg/kg/injection, schedule: Q04DX003 (ip), vehicle: saline) is 89 % of control; the T/C (dose: 300.0 mg/kg/injection, schedule: Q04DX003 (ip), vehicle: saline) was 94 % of control.

As to `C(=C/c1ccc(/C=C/c2ccccc2)cc1)/c1ccccc1`, the T/C under setting [2] was 98 % of control; the T/C under setting [3] was 98 % of control; the T/C under setting [4] was 93 % of control; the T/C (dose: 200.0 mg/kg/injection, schedule: Q04DX003 (ip), vehicle: Klucel (hydroxypropylcellulose) (HPC)) is 104 % of control; the T/C under setting [5] was 95 % of control; the T/C (dose: 400.0 mg/kg/injection, schedule: Q04DX003 (ip), vehicle: Klucel (hydroxypropylcellulose) (HPC)) is 90 % of control.

`CSCCC(NCc1cc(=O)[nH]c(=O)[nH]1)C(=O)O` (stereo not drawn): the T/C (dose: 100.0 mg/kg/injection, schedule: Q04DX003 (ip), vehicle: saline) is 97 % of control; the T/C (dose: 200.0 mg/kg/injection, schedule: Q04DX003 (ip), vehicle: saline) was 101 % of control; the T/C (dose: 400.0 mg/kg/injection, schedule: Q04DX003 (ip), vehicle: saline) was 95 % of control.

Regarding `CSc1ccc(NC(=O)Oc2cc(C)ccc2C(C)C)cc1`, the T/C is 94 % of control under setting [6]; 100 % of control and 88 % of control under setting [2]; 89 % of control under setting [4]; 91 % of control under setting [5].

With `CC(C)=C1C2C=CC1C1C(=O)OC(=O)C21` (stereo not drawn), the T/C under setting [7] was 107 % of control; the T/C (dose: 25.0 mg/kg/injection, schedule: Q01DX009 (ip), vehicle: Klucel (hydroxypropylcellulose) (HPC)) was 98 % of control; the T/C under setting [8] was 96 % of control; the T/C under setting [6] was 95 % of control; the T/C (dose: 50.0 mg/kg/injection, schedule: Q04DX003 (ip), vehicle: Klucel (hydroxypropylcellulose) (HPC)) was 103 % of control; the T/C under setting [1] is 94 % of control. Besides, the T/C under setting [3] is 100 % of control.

Regarding `c1ccc(-c2cc(-c3ccccc3)c(-c3ccccc3)c(-c3ccccc3)c2)cc1`, the T/C was 100 % of control (dose: 50.0 mg/kg/injection, schedule: Q01DX001 (ip), vehicle: saline); 100 % of control under setting [9]; 100 % of control under setting [10]; 100 % of control under setting [11].

For `CNC(=O)C(=O)NCCCN1CC1`, the T/C under setting [7] is 114 % of control and the T/C under setting [8] was 104 % of control.

As to `c1ccc(CNc2nccs2)cc1`, the T/C by setting is: (dose: 75.0 mg/kg/injection, schedule: Q01DX001 (ip), vehicle: carboxymethylcellulose (CMC)) 96 % of control; (dose: 150.0 mg/kg/injection, schedule: Q01DX001 (ip), vehicle: carboxymethylcellulose (CMC)) 91 % of control; (dose: 300.0 mg/kg/injection, schedule: Q01DX001 (ip), vehicle: carboxymethylcellulose (CMC)) 95 % of control.

For the compound `CCC12CCC(=O)NC1Cc1[nH]c3c(OC)cccc3c1C2` (stereo not drawn), the T/C (dose: 100.0 mg/kg/injection, schedule: Q01DX009 (ip), vehicle: saline sonified) is 93 % of control; the T/C (dose: 200.0 mg/kg/injection, schedule: Q01DX009 (ip), vehicle: saline sonified) was 91 % of control; the T/C (dose: 400.0 mg/kg/injection, schedule: Q01DX009 (ip), vehicle: saline sonified) is 91 % of control.

As for `CCCCCCOC(=O)Nc1ccc([N+](=O)[O-])cc1OC`, the T/C is, setting by setting: under setting [2], 103 % of control; under setting [4], 100 % of control; under setting [5], 95 % of control.

With `COc1ccc(N=CC2CCCCC2=O)c([N+](=O)[O-])c1` (stereo not drawn), the T/C was 106 % of control under setting [9], 95 % of control under setting [10] and 93 % of control under setting [11].

`CNC(=O)NC1ON=C(c2ccccc2)C1C(=O)NC` (stereo not drawn): the T/C is 98 % of control (dose: 100.0 mg/kg/injection, schedule: Q01DX001 (ip), vehicle: saline with Tween-80) and 95 % of control (dose: 200.0 mg/kg/injection, schedule: Q01DX001 (ip), vehicle: saline with Tween-80).

In the case of `Cn1nc(-c2ccccc2)[n+](C)n1`, the T/C is 104 % of control (dose: 75.0 mg/kg/injection, schedule: Q01DX001 (ip), vehicle: saline); 100 % of control (dose: 150.0 mg/kg/injection, schedule: Q01DX001 (ip), vehicle: saline); 100 % of control (dose: 300.0 mg/kg/injection, schedule: Q01DX001 (ip), vehicle: saline).

On to `Cc1ccc2c(c1)Oc1ccccc1S2`, for which the T/C by setting is: (dose: 100.0 mg/kg/injection, schedule: Q04DX002 (ip), vehicle: saline with Tween-80) 96 % of control; (dose: 200.0 mg/kg/injection, schedule: Q04DX002 (ip), vehicle: saline with Tween-80) 103 % of control; (dose: 400.0 mg/kg/injection, schedule: Q04DX002 (ip), vehicle: saline with Tween-80) 103 % of control.

`O=C(O)/C=C/C(=O)NNC(=O)/C=C/C(=O)O`: the T/C is 98 % of control under setting [12] and 98 % of control under setting [13].

`CC1(C)N=C(N)N=C(N)N1c1ccc2c(Cl)c(Cl)ccc2c1`: the T/C reads like this: (dose: 50.0 mg/kg/injection, schedule: Q04DX003 (ip), vehicle: saline with Tween-80) 106 % of control; under setting [12], 107 % of control and 114 % of control; under setting [13], 107 % of control.
